# Tested on: PC-3
# Test: Induction of apoptosis in human PC-3 cells assessed as early apoptotic cells at 0.32 uM incubated for 24 hrs by Annexin V-FITC and PI staining based flow cytometry (reference value: 1.32%)
# Assay type: functional
smiles,measurement,value
COc1ccc(/C=C/C(=O)c2ccc(OC)c3c2OC(C)(C)C=C3)cc1NCC(=O)NO,Activity,63.8%
